The test system of one data set is Ebolavirus. The data set is described as follows: Antiviral activity against Ebola virus infected in Vero E6 cells assessed as virus-induced cytopathic effect incubated for 3 days by CPE assay. It counts as functional, organism-based. The following applies: Orthoebolavirus, Vero C1008, 72 h. On the technique in general: Cytopathic effects are the visible damage that an infection or toxin causes in cultured cells.

A short description of data set [1]: Cytotoxicity against African green monkey Vero E6 cells assessed as reduction in cell growth. It counts as toxicity, cell-based. The following applies: chlorocebus sabaeus.
Data set [2] can be described thus: Cytotoxicity against African green monkey Vero E6 cells assessed as reduction in cell viability by Cell titer-Glo luminescent assay. The format is toxicity, cell-based. The following applies: chlorocebus sabaeus. A general note: In ATP-based viability assays light output follows the ATP content of the culture.
The subject of the next data set is SARS-CoV-2. Nature of the data set: Antiviral activity against SARS CoV-2 Omicron B1.1.529 infected in Vero E6 cells at 0.02 MOI assessed as reduction in viral RNA growth incubated for 24 hrs by qRT-PCR analysis. It counts as functional, organism-based. The following applies: Severe acute respiratory syndrome coronavirus 2, Omicron B1.1.529, Vero C1008, 24 h. A general note: Quantitative PCR measures a nucleic acid by following its amplification.

The next data set relates to Vaccinia virus. The data set is described as follows: Antiviral activity against Vaccinia virus. It counts as functional, organism-based. The following applies: Orthopoxvirus vaccinia.
Data set [3] can be described thus: Cytotoxicity against human HFF cells. It counts as toxicity, cell-based.
The nature of data set [4]: Cytotoxicity against dog MDCK cells assessed as reduction in cell viability incubated for 48 hrs by CCK-8 assay. The format is toxicity, cell-based, Canis lupus familiaris.
Data set [5] has as its system Influenza A virus. The data set is described as follows: Anti-influenza activity against influenza A virus H3N2 (A/California/2014) infected in dog MDCK cells incubated for 72 hrs by MTT assay. It counts as functional, organism-based.
Data set [6] deals with Influenza A virus. The data set is described as follows: Antiviral activity against influenza A virus H1N1 infected in dog MDCK cells assessed as reduction in virus induced cytopathic effect by CPE assay. The format is functional, organism-based.
Data set [7] concerns SARS-CoV. The data set is described as follows: Antiviral activity against SARS-CoV Frankfurt-1 infected in Vero E6 cells assessed as reduction in viral replication. The format is functional, organism-based. The settings on record: Severe acute respiratory syndrome-related coronavirus, Frankfurt-1, Vero C1008.
The subject of data set [8] is SARS-CoV. The data set is described as follows: Antiviral activity against SARS-CoV HKU39849 infected in Vero E6 cells assessed as reduction in viral replication. It counts as functional, organism-based. The settings on record: Severe acute respiratory syndrome-related coronavirus, HKU39849, Vero C1008.
A short description of data set [9]: Cytotoxicity against African green monkey Vero E6 cells assessed as reduction in cell viability measured after 72 hrs by WST-1 assay. The format is toxicity, cell-based, Vero C1008. The following applies: chlorocebus sabaeus.
For another data set, the system named is Hepatitis C virus. The data set is described as follows: Antiviral activity against Hepatitis C virus infected in Vero E6 cells assessed as virus induced cytopathic effect. The format is functional, organism-based, Hepacivirus hominis. The following applies: Vero C1008.
The target in data set [10] is RNA-directed RNA polymerase (Hepacivirus hominis, UniProt O39930). Nature of the data set: Inhibition of Hepatitis C virus NS5B polymerase.
RNA-directed RNA polymerase, sequence (O39930 whole entry): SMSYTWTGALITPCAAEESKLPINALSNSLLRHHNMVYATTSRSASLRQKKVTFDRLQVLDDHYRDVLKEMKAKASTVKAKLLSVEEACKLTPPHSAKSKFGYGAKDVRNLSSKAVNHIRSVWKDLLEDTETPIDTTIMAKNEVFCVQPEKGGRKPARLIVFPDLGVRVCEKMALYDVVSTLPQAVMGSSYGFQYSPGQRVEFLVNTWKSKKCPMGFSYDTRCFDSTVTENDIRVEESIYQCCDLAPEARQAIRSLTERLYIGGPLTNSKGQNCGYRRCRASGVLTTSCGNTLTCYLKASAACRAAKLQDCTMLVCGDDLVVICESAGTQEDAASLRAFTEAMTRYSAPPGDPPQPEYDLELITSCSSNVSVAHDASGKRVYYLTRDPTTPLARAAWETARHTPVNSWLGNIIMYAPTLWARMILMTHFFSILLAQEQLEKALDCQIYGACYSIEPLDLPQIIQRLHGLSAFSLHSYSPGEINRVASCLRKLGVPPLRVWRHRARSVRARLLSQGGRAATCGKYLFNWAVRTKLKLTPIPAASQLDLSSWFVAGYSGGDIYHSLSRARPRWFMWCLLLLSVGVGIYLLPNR
Data set [11] can be described thus: Cytotoxicity against African green monkey Vero cells. The format is toxicity, cell-based. The settings on record: chlorocebus sabaeus.
Another data set has as its system Human coronavirus OC43. Nature of the data set: Antiviral activity against Human coronavirus OC43 infected in Vero cells assessed as reduction in viral replication pre-incubated with virus for 1 hr followed by washout and compound treatment and measured after 3 days by qRT-PCR analysis. It counts as functional, organism-based. The following applies: Betacoronavirus 1, Vero.

Data set [12] in a line: Cytotoxicity against human HEL 299 cells. It counts as toxicity, cell-based.
The test system of a further data set is Human alphaherpesvirus 1. The data set is described as follows: Antiviral activity against HSV-1. The format is functional, organism-based.
A further data set deals with Human alphaherpesvirus 2. The data set is described as follows: Antiviral activity against HSV-2. The format is functional, organism-based.
The nature of data set [13]: Cytotoxicity against dog MDCK cells assessed as reduction in cell viability incubated for 72 hrs by CCK-8 assay. It counts as toxicity, cell-based, Canis lupus familiaris.
Data set [14] relates to Influenza A virus. Nature of the data set: Antiviral activity against influenza A virus A/WSN/33 (H1N1) infected in dog MDCK cells assessed as reduction in virus induced cytopathic effect measured after 48 hrs by crystal violet staining based assay. It counts as functional, organism-based.
Data set [15] deals with Influenza A virus. Nature of the data set: Antiviral activity against Influenza virus H3N2 (A/Hong Kong/8/68) infected in dog MDCK cells assessed as reduction in virus induced cytopathic effect measured after 48 hrs by crystal violet staining based assay. It counts as functional, organism-based.
The subject of a further data set is Human betaherpesvirus 5. Nature of the data set: Antiviral activity against HCMV. The format is functional, organism-based.
In data set [16] the test system is Human alphaherpesvirus 3. Nature of the data set: Antiviral activity against Varicella zoster virus infected in human HEL cells assessed as reduction in plaque formation. It counts as functional, organism-based. The following applies: Human alphaherpesvirus 3, HEL.
Another data set has as its system HEL. Nature of the data set: Cytotoxicity against human HEL cells assessed as reduction in cell viability incubated for 24 hrs by MTT assay. The format is functional.
Data set [17] can be described thus: Cytotoxicity against human HEL cells. The format is toxicity, cell-based.
In data set [18] the test system is Human alphaherpesvirus 3. Nature of the data set: Antiviral activity against Varicella zoster virus infected in human HEL cells assessed as reduction in plaque formation incubated for 72 hrs. The settings on record: Human alphaherpesvirus 3, HEL. The format is functional, organism-based.
Data set [19] concerns the target Replicase polyprotein 1ab (Severe acute respiratory syndrome coronavirus 2, UniProt P0DTD1). Nature of the data set: Inhibition of C-terminal SARS-CoV-2 nsp14 N7-methyltransferase activity incubated for 30 mins in presence of SAM by Liquid scintillation analysis.

For orientation: EC50 means the concentration needed to bring the measured effect to its halfway point. A word on the CC50: it is the concentration at which the toxic effect on the cells reaches its halfway point. In general, IC50 refers to the midpoint of a concentration-inhibition curve.

Values after ≈ are worked out from the molar mass of the structure shown. Bounds are passed on as bounds.

With `Nc1nccc2c1ncn2[C@@H]1C[C@H](CO)[C@@H](O)[C@H]1O` [3-DEAZAARISTEROMYCIN A], the EC50 in the data set on Ebolavirus amounted to 2 µM. Moreover, in [1], the CC50 is more than 100 µM.
For the compound `Nc1nccc2c1ncn2[C@@H]1C=C(CO)[C@@H](O)[C@H]1O`, in the data set on Ebolavirus, the EC50 is 30 µM. For the same compound, in data set [1], the CC50 was more than 100 µM.
As to `OC[C@H]1O[C@@H](n2cnc3c(N[C@@H]4CCOC4)ncnc32)[C@H](O)[C@@H]1O` [TECADENOSON], in [2], the CC50 was more than 100 µM. Further, in the data set with SARS-CoV-2, the EC50 was 1.13 µM.
Consider `CCCCCOCCCCCCCCCc1cc2cn([C@@H]3CC[C@H](CO)O3)c(=O)nc2o1`, for which the EC50 with Vaccinia virus was 0.19 µM. The same compound displayed a CC50 in data set [3] of more than 100 µM.
With `NC(=O)c1nc(F)cnc1O` [FAVIPIRAVIR], in data set [4], the CC50 at 48 h was more than 100 µM. For the same compound, the EC50 is 0.07 µg/mL (≈ 0.446 µM) in the data set on Influenza A virus [5] and 0.03 µg/mL (≈ 0.191 µM) with Influenza A virus [6].
Take `NC(=O)c1ncn([C@@H]2O[C@H](CO)[C@@H](O)[C@H]2O)c1O` [MIZORIBINE]: the EC50 came to 3.5 µg/mL (≈ 13.5 µM) with SARS-CoV [7] and 16 µg/mL (≈ 61.7 µM) with SARS-CoV [8]. For the same compound, the 50% cytotoxic concentration (CC50) at 72 h in data set [9] was more than 200 µg/mL.
Take `O=c1nc(NO)ccn1[C@@H]1O[C@H](CO)[C@@H](O)[C@H]1O` [N-HYDROXYCYTIDINE]: the EC50 in the data set on Hepatitis C virus worked out at 5 µM. The compound further came in with a concentration for half-maximal inhibition (IC50) in [10] of 50 µM.
For the compound `NC(=O)c1cc([C@@H]2O[C@H](CO)[C@@H](O)[C@H]2O)n2nc(CF)nc(N)c12`, the CC50 in data set [11] is 45 µM. In the data set with Human coronavirus OC43, the EC50 worked out at 1.3 µM.
On the same counts, the results for `Cc1nc(N)c2c(C(N)=O)cc([C@@H]3O[C@H](CO)[C@@H](O)[C@H]3O)n2n1` are 45 µM and 0.65 µM.
Compound `Nc1nc2c(ncn2C[Se]CCO)c(=O)[nH]1` showed a CC50 in [12] of more than 100 µM. Further, the half-maximal effective concentration (EC50) in the data set with Human alphaherpesvirus 1 was determined as 1.47 µM; in the data set on Human alphaherpesvirus 2 it was 6.34 µM.
As to `Cc1ncnc2c1c(/C=C/c1cccs1)cn2[C@@H]1O[C@H](CO)[C@@H](O)[C@@]1(C)F`, in data set [13], the CC50 at 72 h is more than 100 µM. The EC50 with Influenza A virus [14] turned out to be 3.95 µM; in the data set with Influenza A virus [15] it was 3.61 µM.
With `OC[C@@H]1O[C@H](n2cnc3cc(Br)c(Br)cc32)[C@@H](O)[C@H]1O`, in the data set with Human betaherpesvirus 5, the 50% effective concentration (EC50) stood at 1.2 µM.
With `COc1ccc(C(OC[C@H]2O[C@@H](n3cc4c(nc3=O)Nc3c(OCCN)cccc3O4)C[C@@H]2O)(c2ccccc2)c2ccc(OC)cc2)cc1`, in the data set on Human alphaherpesvirus 3 [16], the EC50 was 1.7 µM. In addition, the 50% cytotoxic concentration (CC50) in the data set on HEL turned out to be 14.4 µM.
In turn, `O=c1nc2oc(CCCCCCCCCBr)cc2cn1[C@H]1C[C@H](O)[C@@H](CO)O1` yielded a CC50 in data set [17] of more than 50 µM. Besides, the concentration for a half-maximal effect (EC50) in the data set on Human alphaherpesvirus 3 [18] came out at 0.031 µM.
For the compound `CC(C)C(=O)OC[C@H]1O[C@@H](n2ccc(NO)nc2=O)[C@H](O)[C@@H]1O` [MOLNUPIRAVIR], the half-maximal cytotoxic concentration (CC50) in data set [2] is more than 100 µM. Further, the EC50 with SARS-CoV-2 amounted to 1.08 µM.
Take `Nc1ccn(C[C@@H](CO)OCP(=O)(O)O)c(=O)n1` [CIDOFOVIR ANHYDROUS]: a half-maximal effect with Vaccinia virus (EC50) was put at 27.3 µM. In data set [3], this compound yielded a CC50 of more than 100 µM.
Regarding `O=c1nc2oc(CCCCCCCCCF)cc2cn1[C@H]1C[C@H](O)[C@@H](CO)O1`, the CC50 in data set [17] was 200 µM. Also, the concentration giving a half-maximal response (EC50) in the data set with Human alphaherpesvirus 3 [18] was 0.014 µM.
As for `NC(=O)c1ncn([C@@H]2O[C@H](CO)[C@@H](O)[C@H]2O)n1` [RIBAVIRIN], the 50% effective concentration (EC50) with SARS-CoV [7] came out at 20 µg/mL (≈ 81.9 µM); with SARS-CoV [8], 80 µg/mL (≈ 328 µM). Moreover, the half-maximal cytotoxic concentration (CC50) at 72 h in [9] is more than 200 µg/mL.
As for `Cc1ncnc2c1c(/C=C/c1ccccn1)cn2[C@@H]1O[C@H](CO)[C@@H](O)[C@@]1(C)F`, the CC50 at 72 h in [13] was more than 100 µM. Further, the results for the 50% effective concentration (EC50) in the data set with Influenza A virus [14] and in the data set on Influenza A virus [15] were 5.88 µM and 6.95 µM, respectively.
Regarding `Nc1nc2c(ncn2C[Se]C(CO)CO)c(=O)[nH]1`, in the data set on Human betaherpesvirus 5, the EC50 turned out to be 53.1 µM. For the same compound, the CC50 in [12] is more than 100 µM.
On to `Nc1ncnc2c1c(C#Cc1cnc3ccccc3c1)cn2[C@@H]1O[C@H](CSCC[C@H](N)C(=O)O)[C@@H](O)[C@H]1O`, for which the IC50 in [19] amounted to 0.003 µM.
